In patent US10941379B2, “Microbial system for biosynthesis of natural and engineered products coupled to in situ extraction in supercritical CO2” (Massachusetts Institute of Technology, priority 2016, dated 2021):

Tests used:
Format in all cases: cell-based, Bacillus megaterium
[1] = test system: B. megaterium SR7; experiment: Biolog GenIII sole carbon source growth; details: Table 11; for Growth in carbon source Biolog plate, +Metals: trace metals-amended plate; for Growth in carbon source Biolog plate, I: unamended plate trial I; for Growth in carbon source Biolog plate, II: unamended plate trial II
Description: (§1) Plates were incubated at 37° C. on a plate shaker at 200 rpm and assayed for growth using NADH-dependent colorimetric changes measured by OD490 on a microplate reader (BioTek Synergy 2; BioTek; Winooski, Vt.).

[2] = test system: B. megaterium SR7; experiment: Biolog GenIII Microplate growth sensitivity assay; details: for % Control: (OD490 AB/OD490 Control)*100 for Biolog, average n = 2, Biolog does not publish concentrations; for Sensitivity: Biolog, concentration not published; for SR7 growth inhibition in Biolog assays: result in words; on sensitivity: key: S = sensitive; R = resistant
Description: as §1

[3] = test system: B. megaterium SR7; experiment: SR7 antibiotic sensitivity in LB (OD600 vs unamended control); details: for % Control: (OD600 AB/OD600 Control)*100 in LB, average n = 2, 24 hours, 37° C.; for Sensitivity: LB
Description: To help guide optimization of growth conditions for strain SR7, physiological tests were conducted under aerobic conditions. To determine tolerance for pH, salinity and bicarbonate, high throughput culturing was done in 96 well plates and scored for growth by OD600 using a microplate reader (BioTek Synergy 2; BioTek; Winooski, Vt.). 200 uL LB solutions/well were inoculated in triplicate with 10^4 spores/ml (based on SR7 spore stock filter counts) and incubated on a plate rocker at 37° C. with unamended positive and cell-free negative LB controls. Tests for pH tolerance (pH 2-10) were conducted in LB medium amended with HCl or NaOH. The effect of salinity and bicarbonate on growth was determined by adding NaCl (1-10%) and NaHCO3 (0.1-0.5M), respectively, to LB media. Optimal SR7 growth temperature was tested by inoculating 10^4 spores/ml in 5 ml of LB in triplicate at temperatures of 9-55° C. Cultures and cell-free negative controls were incubated without shaking, with subsamples taken for periodic OD600 measurements. SR7 antibiotic sensitivity was determined by supplementing 5 ml LB with ampicillin (5-50 μg/ml), chloramphenicol (3.5-35 μg/ml), kanamycin (5-50 μg/ml), spectinomycin (10-100 μg/ml), streptomycin (10-100 μg/ml), or tetracycline (1.5-15 μg/ml).

N[C@H](CO)C(=O)O [D-Serine, reference compound]
Growth in carbon source Biolog plate, +Metals [1]: −
Growth in carbon source Biolog plate, I [1]: −
Growth in carbon source Biolog plate, II [1]: −
% Control [2]: 10%
Sensitivity [2]: S
SR7 growth inhibition in Biolog assays [2]: inhibited

CC1(C)S[C@@H]2[C@H](NC(=O)[C@H](N)c3ccccc3)C(=O)N2[C@H]1C(=O)O [Ampicilin]
% Control ([3]; 50 ug/mL): 8%
Sensitivity ([3]; 50 ug/mL): S

C[C@H]1[C@H](NC(=O)/C(=N\OC(C)(C)C(=O)O)c2csc(N)n2)C(=O)N1S(=O)(=O)O [Aztreonam]
% Control [2]: 10%
Sensitivity [2]: S

CO[C@H]1C[C@H](O[C@H]2[C@H](C)[C@@H](O[C@@H]3O[C@H](C)C[C@H](N(C)C)[C@H]3OC(C)=O)[C@@H](C)C[C@@]3(CO3)C(=O)[C@H](C)[C@@H](OC(C)=O)[C@@H](C)[C@@H](C)OC(=O)[C@@H]2C)O[C@@H](C)[C@@H]1OC(C)=O [Troleandomycin]
% Control [2]: 9%
Sensitivity [2]: S

CCC[C@@H]1C[C@@H](C(=O)N[C@@H]([C@H]2O[C@H](SC)[C@H](O)[C@@H](O)[C@H]2O)[C@@H](C)O)N(C)C1 [Lincomycin]
% Control [2]: 11%
Sensitivity [2]: S

CCCCC(CC)CCC(CC(C)C)OS(=O)(=O)[O-].[Na+] (stereo not shown) [Niaproof 4]
% Control [2]: 9%
Sensitivity [2]: S
SR7 growth inhibition in Biolog assays [2]: inhibited

CC(=O)O[C@H]1C[C@@]2(C)[C@@H](C[C@@H](O)[C@H]3[C@@]4(C)CC[C@@H](O)[C@@H](C)[C@@H]4CC[C@@]32C)/C1=C(\CCC=C(C)C)C(=O)O [Fusidic Acid]
% Control [2]: 9%
Sensitivity [2]: S

[H]/N=C(/N)N[C@H]1[C@H](O)[C@@H](O)[C@H](O[C@@H]2O[C@@H](C)[C@](O)(C=O)[C@H]2O[C@@H]2O[C@@H](CO)[C@H](O)[C@@H](O)[C@@H]2NC)[C@@H](N/C(N)=N\[H])[C@@H]1O [Streptomycin]
% Control ([3]; 10 ug/mL): 10%
Sensitivity ([3]; 10 ug/mL): S

CN(C)[C@@H]1C(O)=C(C(N)=O)C(=O)[C@@]2(O)C(O)=C3C(=O)c4c(O)cccc4[C@@](C)(O)[C@H]3C[C@@H]12 [Tetracycline]
% Control ([3]; 1.5 ug/mL): 11%
Sensitivity ([3]; 1.5 ug/mL): S

CO[C@H]1/C=C/O[C@@]2(C)Oc3c(C)c([O-])c4c(O)c(cc(O)c4c3C2=O)NC(=O)/C(C)=C\C=C\[C@H](C)[C@H](O)[C@@H](C)[C@@H](O)[C@@H](C)[C@H](OC(C)=O)[C@@H]1C.[Na+] [Rifamycin SV]
% Control [2]: 11%
Sensitivity [2]: S

CCn1cc(C(=O)O)c(=O)c2ccc(C)nc21 [Nalidixic Acid]
% Control [2]: 14%
Sensitivity [2]: S

CN[C@H](CC(C)C)C(=O)N[C@H]1C(=O)N[C@@H](CC(N)=O)C(=O)N[C@H]2C(=O)N[C@H]3C(=O)N[C@H](C(=O)N[C@H](C(=O)O)c4cc(O)cc(O)c4-c4cc3ccc4O)[C@H](O)c3ccc(c(Cl)c3)Oc3cc2cc(c3O[C@@H]2O[C@H](CO)[C@@H](O)[C@H](O)[C@H]2O[C@H]2C[C@](C)(N)[C@H](O)[C@H](C)O2)Oc2ccc(cc2Cl)[C@H]1O [Vancomycin]
% Control [2]: 10%
Sensitivity [2]: S

CN(C)c1ccc(O)c2c1C[C@H]1C[C@H]3[C@H](N(C)C)C(O)=C(C(N)=O)C(=O)[C@@]3(O)C(O)=C1C2=O [Minocycline]
Sensitivity [2]: S

O=C(N[C@H](CO)[C@H](O)c1ccc([N+](=O)[O-])cc1)C(Cl)Cl [Chloramphenicol]
% Control ([3]; 35 ug/mL): 9%
Sensitivity ([3]; 35 ug/mL): S

NC[C@H]1O[C@H](O[C@H]2[C@H](O)[C@@H](O[C@H]3O[C@H](CO)[C@@H](O)[C@H](N)[C@H]3O)[C@H](N)C[C@@H]2N)[C@H](O)[C@@H](O)[C@@H]1O [Kanamycin]
% Control ([3]; 5 ug/mL): 9%
Sensitivity ([3]; 5 ug/mL): S

C[C@H](O)[C@@H](O)[C@@H](O)[C@H](O)C=O [L-Fucose]
Growth in carbon source Biolog plate, +Metals [1]: −
Growth in carbon source Biolog plate, I [1]: −
Growth in carbon source Biolog plate, II [1]: −
